The source of these data is ChEMBL document CHEMBL1125888, “Inhibitors of cholesterol biosynthesis. 3. Tetrahydro-4-hydroxy-6-[2-(1H-pyrrol-1-yl)ethyl]-2H-pyran-2-one inhibitors of HMG-CoA reductase. 2. Effects of introducing substituents at positions three and four of the pyrrole nucleus” (J Med Chem, 1991).

Test [1] concerns the target T1, 3-hydroxy-3-methylglutaryl-coenzyme A reductase (Rattus norvegicus) (UniProt P51639).
T1 sequence (whole entry): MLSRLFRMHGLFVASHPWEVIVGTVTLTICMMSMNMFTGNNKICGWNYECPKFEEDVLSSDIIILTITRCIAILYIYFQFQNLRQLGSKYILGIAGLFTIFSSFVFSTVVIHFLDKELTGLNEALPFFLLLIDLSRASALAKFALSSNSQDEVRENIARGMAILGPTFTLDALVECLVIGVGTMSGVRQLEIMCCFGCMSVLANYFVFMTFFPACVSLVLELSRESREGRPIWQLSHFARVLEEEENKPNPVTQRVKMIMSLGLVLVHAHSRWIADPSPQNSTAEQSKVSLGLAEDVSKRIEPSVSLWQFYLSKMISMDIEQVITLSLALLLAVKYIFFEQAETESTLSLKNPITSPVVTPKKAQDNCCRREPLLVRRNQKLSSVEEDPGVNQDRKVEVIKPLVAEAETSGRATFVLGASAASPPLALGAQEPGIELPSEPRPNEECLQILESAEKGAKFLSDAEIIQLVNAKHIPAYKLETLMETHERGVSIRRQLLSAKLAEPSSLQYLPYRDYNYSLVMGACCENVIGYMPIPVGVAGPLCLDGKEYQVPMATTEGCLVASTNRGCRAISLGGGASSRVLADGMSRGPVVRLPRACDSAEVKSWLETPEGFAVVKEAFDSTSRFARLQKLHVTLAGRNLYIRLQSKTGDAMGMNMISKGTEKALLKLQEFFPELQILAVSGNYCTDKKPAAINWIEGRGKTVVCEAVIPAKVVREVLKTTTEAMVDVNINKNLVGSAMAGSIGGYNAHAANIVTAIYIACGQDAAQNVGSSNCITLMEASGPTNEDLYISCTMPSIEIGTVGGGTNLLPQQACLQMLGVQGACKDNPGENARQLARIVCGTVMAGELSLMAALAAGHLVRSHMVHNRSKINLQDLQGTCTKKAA
Nature of the test: Relative potency against HMG-CoA reductase activity in partially purified rat liver. Format: functional.

The target in test [2] is T2, 3-hydroxy-3-methylglutaryl-coenzyme A reductase (Rattus norvegicus, UniProt P51639).
T2 sequence (P51639 whole entry): T1 sequence (whole entry)
The experiment in a line: Inhibition of HMG-CoA reductase activity in partially purified rat liver.

In the case of `CC(C)c1c(C(=O)Nc2ccccc2)c(-c2ccccc2)c(-c2ccc(F)cc2)n1CC[C@@H]1C[C@@H](O)CC(=O)O1` (racemic), the Relative potency in test [1] was found to be 81.4.

Consider `CC(C)c1cc(-c2cccnc2)c(-c2ccc(F)cc2)n1CC[C@@H]1C[C@@H](O)CC(=O)O1`, for which the Relative potency in test [1] stood at 9.4. The 50% inhibitory concentration (IC50) in test [2] was 71 nM. Taken in the same sequence, the figures for `CC(C)c1c(Cl)c(Cl)c(-c2ccc(F)cc2)n1CC[C@@H]1C[C@@H](O)CC(=O)O1` were 78.6 and 28 nM. In the same order, the values of `CC(C)c1c(C(=O)OCc2ccccc2)c(-c2ccccc2)c(-c2ccc(F)cc2)n1CC[C@@H]1C[C@@H](O)CC(=O)O1` are 24 and 40 nM. In the same order, the values of `Cc1c(C)c(C(C)C)n(CC[C@@H]2C[C@@H](O)CC(=O)O2)c1-c1ccc(F)cc1` are 16 and 140 nM. In turn, `CCOC(=O)c1c(C(=O)OCC)c(C(C)C)n(CC[C@@H]2C[C@@H](O)CC(=O)O2)c1-c1ccc(F)cc1` showed a Relative potency in test [1] of 2.8. The same molecule showed a concentration for half-maximal inhibition (IC50) in test [2] of 350 nM. Take `CC(C)c1ccc(-c2ccc(F)cc2)n1CC[C@@H]1C[C@@H](O)CC(=O)O1`: in test [1], the Relative potency amounted to 10.9.

Regarding `CC(C)c1c(C(=O)Nc2ccccc2)c(-c2ccccc2)c(-c2ccc(F)cc2)n1CC[C@@H]1C[C@@H](O)CC(=O)O1` (stereo in doubt; (-)-33), the Relative potency in test [1] came out at 13.9. Take `CCOC(=O)c1c(-c2ccccc2)c(-c2ccccc2)n(CC[C@@H]2C[C@@H](O)CC(=O)O2)c1CC`: the Relative potency in test [1] worked out at 6.3. This molecule registered a concentration for half-maximal inhibition (IC50) in test [2] of 890 nM.

With `CC(C)c1c(C(=O)Nc2ccccc2)c(-c2ccccc2)c(-c2ccc(F)cc2)n1CC[C@@H]1C[C@@H](O)CC(=O)O1` (stereo in doubt; (+)-33), the Relative potency in test [1] came out at 500.

For the molecule `CC(C)c1c(Br)c(Br)c(-c2ccc(F)cc2)n1CC[C@@H]1C[C@@H](O)CC(=O)O1`, the Relative potency in test [1] was 78.6. The same molecule had a half-maximal inhibitory concentration (IC50) in test [2] of 28 nM.

In test [1], `CCOC(=O)c1c(-c2ccc(C#N)cc2)c(-c2ccc(F)cc2)n(CC[C@@H]2C[C@@H](O)CC(=O)O2)c1C(C)C` showed a Relative potency of 16.2. In test [2], this molecule returned an IC50 of 280 nM. In the same order, the values of `CCOC(=O)c1c(-c2ccccc2)c(-c2ccccc2)n(CC[C@@H]2C[C@@H](O)CC(=O)O2)c1C(C)C` are 23.5 and 170 nM. Regarding `CC(C)c1cc(-c2ccccn2)c(-c2ccc(F)cc2)n1CC[C@@H]1C[C@@H](O)CC(=O)O1`, the Relative potency in test [1] was 76. Moreover, the IC50 in test [2] was found to be 46 nM. In the same order, the values of `CC(C)c1cc(C(=O)C(F)(F)F)c(-c2ccc(F)cc2)n1CC[C@@H]1C[C@@H](O)CC(=O)O1` are 8.8 and 800 nM. In the same order, the values of `CCOC(=O)c1c(-c2ccccc2)c(C(C)C)n(CC[C@@H]2C[C@@H](O)CC(=O)O2)c1-c1ccc(F)cc1` are 100 and 50 nM.

Molecule `CC(C)c1c(-c2ccccc2)cc(-c2ccc(F)cc2)n1CC[C@@H]1C[C@@H](O)CC(=O)O1` gave a Relative potency in test [1] of 36.3. This molecule gave an IC50 in test [2] of 120 nM. Turning to `CC(C)c1cc(-c2ccncc2)c(-c2ccc(F)cc2)n1CC[C@@H]1C[C@@H](O)CC(=O)O1`, the Relative potency in test [1] is 2.1. The molecule also gave a concentration for half-maximal inhibition (IC50) in test [2] of 310 nM.

In test [2], `CC(C)c1c(C(=O)Nc2ccccc2)c(-c2ccccc2)c(-c2ccc(F)cc2)n1CC[C@@H]1C[C@@H](O)CC(=O)O1` (stereo in doubt; (+)-33) [ATORVASTATIN LACTONE] gave an IC50 of 7 nM. As for `CC[C@H](C)C(=O)O[C@H]1CCC=C2C=C[C@H](C)[C@H](CC[C@@H]3C[C@@H](O)CC(=O)O3)[C@H]21` [MEVASTATIN], the Relative potency in test [1] worked out at 100. Moreover, the IC50 in test [2] worked out at 30 nM. For the molecule `COC(=O)c1c(C(=O)OC)c(C(C)C)n(CC[C@@H]2C[C@@H](O)CC(=O)O2)c1-c1ccc(F)cc1`, the Relative potency in test [1] stood at 14.3. For the same molecule, in test [2], half-maximal inhibition (IC50) required 180 nM.

`CC(C)c1c(C(=O)Nc2ccccc2)c(-c2ccccc2)c(-c2ccc(F)cc2)n1CC[C@@H]1C[C@@H](O)CC(=O)O1` (racemic) [ATORVASTATIN LACTONE] had an IC50 in test [2] of 25 nM.

For `CCOC(=O)c1c(-c2ccccc2)c(-c2ccc(F)cc2)n(CC[C@@H]2C[C@@H](O)CC(=O)O2)c1C(C)C`, in test [1], the Relative potency came to 35.5. Further, it took 200 nM to reach half-maximal inhibition in test [2] (IC50). In turn, `CC(C)c1c(C(=O)Nc2ccccc2)c(-c2ccccc2)c(-c2ccc(F)cc2)n1CC[C@@H]1C[C@@H](O)CC(=O)O1` (stereo in doubt; (-)-33) [ATORVASTATIN LACTONE] showed a half-inhibitory concentration (IC50) in test [2] of 440 nM. In test [1], `CCOC(=O)c1c(-c2ccccc2)c(-c2ccccc2)n(CC[C@@H]2C[C@@H](O)CC(=O)O2)c1C` yielded a Relative potency of 0.6. Also, half-maximal inhibition in test [2] (IC50) was put at 4000 nM. `CC(C)c1cc(-c2ccccc2)c(-c2ccc(F)cc2)n1CC[C@@H]1C[C@@H](O)CC(=O)O1` came in with a Relative potency in test [1] of 12.5. In test [2], this molecule had an IC50 of 347 nM.
